Laboratory results taken from PubChem BioAssay AID1017 (Sanford-Burnham Center for Chemical Genomics, 2008).
“And” between values parts separate entries of the source, which are not always exact repeats. Equal entries are not always repeated.

Each molecule was assayed against Intestinal-type alkaline phosphatase (Homo sapiens) (UniProt P09923) (assay: inhibition of intestinal alkaline phosphatase – biochemical, luminescence, dose response (AID 1017)). Details: purified human IAP, luminescent substrate.
Intestinal-type alkaline phosphatase (Homo sapiens), sequence (P09923 whole entry, looked up): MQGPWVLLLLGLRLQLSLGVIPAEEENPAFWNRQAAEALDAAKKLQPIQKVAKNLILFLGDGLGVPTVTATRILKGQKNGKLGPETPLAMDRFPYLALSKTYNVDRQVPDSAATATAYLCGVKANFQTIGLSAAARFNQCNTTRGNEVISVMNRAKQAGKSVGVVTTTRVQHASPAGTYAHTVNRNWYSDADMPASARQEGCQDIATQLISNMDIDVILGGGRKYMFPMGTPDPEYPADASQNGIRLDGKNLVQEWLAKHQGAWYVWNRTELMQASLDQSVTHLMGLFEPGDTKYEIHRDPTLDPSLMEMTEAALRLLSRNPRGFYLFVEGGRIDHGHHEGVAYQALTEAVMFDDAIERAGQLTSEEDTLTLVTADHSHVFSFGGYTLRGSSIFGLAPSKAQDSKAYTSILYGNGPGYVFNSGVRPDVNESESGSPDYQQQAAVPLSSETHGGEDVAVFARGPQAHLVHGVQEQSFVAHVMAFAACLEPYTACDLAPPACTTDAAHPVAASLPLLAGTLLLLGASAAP

IC50	Compound
110 nM and 157 nM	O=C1C2CC=CCC2C(=O)N1c1n[nH]c(-c2ccccc2)n1 (stereo not drawn)
539 nM and 922 nM	O=C1C2CC=CCC2C(=O)N1c1n[nH]c(Cc2ccccc2)n1 (stereo not drawn)
9950 nM	Oc1ccc(CCN=Cc2c(O)[nH]c3ccccc23)cc1O
